O=C(O)CNC(=O)C(=O)NCC(=O)O
solubility (mole fraction)
Details	293.15 K	298.15 K	303.15 K	308.15 K	313.15 K	318.15 K	323.15 K	328.15 K	333.15 K
in DMF	0.0292	0.0401	0.0519	0.0629	0.0732	0.082	0.0879	0.0909	0.0923
in DMSO	0.0675	0.0736	0.0807	0.0879	0.0963	0.105	0.114	0.124	0.136
in THF	3.5e-06	1.41e-05	4.17e-05	9.96e-05	0.000203	0.000354	0.000527	0.000715	0.000892
in acetonitrile	1.6e-06	3.2e-06	5.6e-06	9.2e-06	1.41e-05	2.01e-05	2.73e-05	3.62e-05	4.71e-05
in ethanol	2.08e-05	3.75e-05	6.27e-05	0.000104	0.000155	0.000216	0.00029	0.000382	0.0005
in ethyl acetate	4.3e-06	6e-06	7.8e-06	1.04e-05	1.38e-05	1.81e-05	2.24e-05	2.76e-05	3.37e-05
in isopropanol	7.7e-06	1.47e-05	2.59e-05	4.71e-05	7.77e-05	0.000118	0.000174	0.000246	0.000355
in methanol	0.000159	0.000222	0.000303	0.000409	0.000527	0.000663	0.000816	0.000997	0.00121
in n-butanol	2.9e-06	5.3e-06	1e-05	1.77e-05	3.06e-05	5.12e-05	7.95e-05	0.00012	0.00019
in n-propanol	5.9e-06	8.2e-06	1.3e-05	2.06e-05	3.41e-05	5.83e-05	0.000104	0.000198	0.000355
in water	0.000127	0.000183	0.000267	0.000362	0.00048	0.000634	0.000816	0.00105	0.00136
